This test deals with MMP-13CD (catalytic domain of collagenase-3) (Homo sapiens, UniProt P45452). The experiment in a line: Thiopeptolide substrate hydrolysis inhibition assay, MMP-13CD. It counts as biochemical. The settings on record: Table I; thiopeptolide substrate, HEPES pH 7.0, 22° C.; read-out: MMP-13CD IC50. An excerpt:
Thiopeptolide substrates show virtually no decomposition or hydrolysis at or below neutral pH in the absence of a matrix metalloproteinase enzyme.

The text below walks through data of patent US20030004172A1, “Fused pyrimidinone matrix metalloproteinase inhibitors” (priority 2001, published 2003).

In general, IC50 refers to the concentration that gives 50% inhibition.

SMILES strings stand for the structures. A value given as a limit tells only on which side of the number the result lay.

As for `COc1cccc(COC(=O)c2cc3c(=O)n(Cc4ccc(-c5nn[nH]n5)cc4)c(=O)[nH]c3s2)c1` [Example 67, 2,4-Dioxo-3-[4-(2H-tetrazol-4-yl)-benzyl]-1,2,3,4-tetrahydro-thieno[2,3-d]pyrimidine-6-carboxylic acid 3-methoxy-benzyl ester], the IC50 is 0.00168 µM.
Take `Cn1c(=O)n(Cc2ccccc2)c(=O)c2cc(C(=O)OCCCc3ccccc3)sc21` [Example 181, 3-Benzyl-1-methyl-2,4-dioxo-1,2,3,4-tetrahydro-thieno[2,3-d]pyrimidine-6-carboxylic acid 3-phenyl-propyl ester]: the IC50 was greater than 100 µM.
Under `COc1ccc(CNC(=O)c2cc3c(=O)n(CCC(=O)c4ccc(Cl)cc4)c(=O)n(C)c3s2)cc1` [Example 271] stands 5.9 µM; under `Cn1c(=O)n(CCCN)c(=O)c2cc(C(=O)OCc3ccccc3)sc21` [Example 116, 3-(3-Amino-propyl)-1-methyl-2,4-dioxo-1,2,3,4-tetrahydro-thieno[2,3-d]pyrimidine-6-carboxylic acid benzyl ester], 13 µM; under `COc1cc(CNC(=O)c2cc3c(=O)n(Cc4ccc([N+](=O)[O-])nc4)c(=O)n(C)c3s2)ccn1` [Example 370, 1-Methyl-3-(6-nitro-pyridin-3-ylmethyl)-2,4-dioxo-1,2,3,4-tetrahydro-thieno[2,3-d]pyrimidine-6-carboxylic acid (2-methoxy-pyridin-4-ylmethyl)-amide], 1.17 µM.
On to `C/C=C/Cn1c(=O)c2cc(C(=O)NCc3ccc(OC)cc3)sc2n(C)c1=O` [Example 258], for which the IC50 is 0.27 µM.
In the case of `Cn1c(=O)n(Cc2ccc(C(=O)OC(C)(C)C)cc2)c(=O)c2cc(C(=O)NCc3ccc(S(C)(=O)=O)cc3)sc21` [Example 80, 4-[6-(4-Methanesulfonyl-benzylcarbamoyl)-1-methyl-2,4-dioxo-1,4-dihydro-2H-thieno[2,3-d]pyrimidin-3-ylmethyl]-benzoic acid tert-butyl ester], the IC50 came to 25 µM.
As for `COc1cccc(CNC(=O)c2cc3c(=O)n(CCOc4ccc(Br)cc4)c(=O)n(C)c3s2)c1` [Example 295], the figure is 0.23 µM; as for `COC(=O)c1cc2c(=O)n(Cc3ccccc3)c(=O)n(C)c2s1` [Example 300, 3-Benzyl-1-methyl-2,4-dioxo-1,2,3,4-tetrahydro-thieno[2,3-d]pyrimidine-6-carboxylic acid methyl ester], greater than 100 µM.
For `Cn1c(=O)n(Cc2ccc(C(=O)O)cc2)c(=O)c2cc(C(=O)NCc3cccc(OC(F)F)c3)sc21` [Example 77, 4-[6-(3-Difluoromethoxy-benzylcarbamoyl)-1-methyl-2,4-dioxo-1,4-dihydro-2H-thieno[2,3-d]pyrimidin-3-ylmethyl]-benzoic acid], the IC50 came to 0.00655 µM.
In the case of `CCCCCOC(=O)c1cc2c(=O)n(Cc3ccccc3)c(=O)n(C)c2s1` [Example 180, 3-Benzyl-1-methyl-2,4-dioxo-1,2,3,4-tetrahydro-thieno[2,3-d]pyrimidine-6-carboxylic acid pentyl ester], the IC50 was determined as 30 µM.
For the compound `Cc1c(C(=O)OCc2ccccc2)sc2[nH]c(=O)n(-c3ccc([N+](=O)[O-])cc3)c(=O)c12` [Example 8, 5-Methyl-3-(4-nitro-phenyl)-2,4-dioxo-1,2,3,4-tetrahydro-thieno[2,3-d]-6-carboxylic acid benzyl ester], the IC50 worked out at 15 µM.
Regarding `COc1ccc(CNC(=O)c2cc3c(=O)n(CCc4cccc5ccccc45)c(=O)n(C)c3s2)cc1` [Example 259], the IC50 is 30 µM.
As for `COc1ccc(CNC(=O)c2cc3c(=O)n(Cc4ccccc4)c(=O)n(C)c3s2)cc1OC` [Example 324, 3-Benzyl-1-methyl-2,4-dioxo-1,2,3,4-tetrahydro-thieno[2,3-d]pyrimidine-6-carboxylic acid 3,4-dimethoxy-benzylamide], the figure is greater than 100 µM.
Take `Cn1c(=O)n(Cc2ccccc2)c(=O)c2cc(C(=O)NCCc3ccc(Cl)cc3Cl)sc21` [Example 363, 3-Benzyl-1-methyl-2,4-dioxo-1,2,3,4-tetrahydro-thieno[2,3-d]pyrimidine-6-carboxylic acid[2-(2,4-dichloro-phenyl)-ethyl]-amide]: the 50% inhibitory concentration (IC50) amounted to 30 µM.
With `Cn1c(=O)n(Cc2ccccc2)c(=O)c2cc(C(=O)OCc3cccc(Oc4ccccc4)c3)sc21` [Example 182, 3-Benzyl-1-methyl-2,4-dioxo-1,2,3,4-tetrahydro-thieno[2,3-d]pyrimidine-6-carboxylic acid 3-phenoxy-benzyl ester], the IC50 was determined as 8.6 µM.
Under `Cn1c(=O)n(Cc2ccccc2)c(=O)c2cc(C(=O)OCc3c(F)c(F)c(F)c(F)c3F)sc21` [Example 72, 3-Benzyl-1-methyl-2,4-dioxo-1,2,3,4-tetrahydro-thieno[2,3-d]pyrimidine-6-carboxylic acid pentafluorophenylmethyl ester] stands greater than 100 µM; under `COc1cccc(CNC(=O)c2cc3c(=O)n(C(C)c4ccccc4)c(=O)n(C)c3s2)c1` (centres unmarked) [Example 279], 3.5 µM; under `COc1ccc(OC)c(C(=O)Cn2c(=O)c3cc(C(=O)OCc4ccccc4)sc3n(C)c2=O)c1` [Example 108, 3-[2-(2,5-Dimethoxy-phenyl)-2-oxo-ethyl]-1-methyl-2,4-dioxo-1,2,3,4-tetrahydro-thieno[2,3-d]pyrimidine-6-carboxylic acid benzyl ester], 1.7 µM.
For `Cn1c(=O)n(Cc2ccccc2)c(=O)c2cc(C(=O)NCC(c3ccccc3)c3ccccc3)sc21` [Example 347, 3-Benzyl-1-methyl-2,4-dioxo-1,2,3,4-tetrahydro-thieno[2,3-d]pyrimidine-6-carboxylic acid (2,2-diphenyl-ethyl)-amide], the IC50 came to 16 µM.
`Cn1c(=O)n(Cc2ccccc2)c(=O)c2cc(C(=O)OCC3CCCCCC3)sc21` [Example 197, 3-Benzyl-1-methyl-2,4-dioxo-1,2,3,4-tetrahydro-thieno[2,3-d]pyrimidine-6-carboxylic acid cycloheptylmethyl ester]: the IC50 is greater than 100 µM.
As to `Cn1c(=O)n(CC(O)COc2cccc3ccccc23)c(=O)c2cc(C(=O)OCc3ccccc3)sc21` (centres unmarked) [Example 126, 3-[2-Hydroxy-3-(naphthalen-1-yloxy)-propyl]-1-methyl-2,4-dioxo-1,2,3,4-tetrahydro-thieno[2,3-d]pyrimidine-6-carboxylic acid benzyl ester], the IC50 was found to be 13 µM.
On to `Cn1c(=O)n(Cc2ccccc2)c(=O)c2cc(C(=O)OCCCc3cccnc3)sc21` [Example 164, 3-Benzyl-1-methyl-2,4-dioxo-1,2,3,4-tetrahydro-thieno[2,3-d]pyrimidine-6-carboxylic acid 3-pyridin-3-yl-propyl ester], for which the IC50 was determined as 69 µM.
As for `Cn1c(=O)n(Cc2ccc(-c3ccccc3)cc2)c(=O)c2cc(C(=O)OCc3ccccc3)sc21` [Example 100, 3-Biphenyl-4-ylmethyl-1-methyl-2,4-dioxo-1,2,3,4-tetrahydro-thieno[2,3-d]pyrimidine-6-carboxylic acid benzyl ester], the figure is 0.61 µM; as for `COc1cccc(CNC(=O)c2cc3c(=O)[nH]c(=O)n(C)c3s2)c1` [Example 218], 18 µM.
In the case of `Cc1c(C(=O)OCc2ccccc2)sc2[nH]c(=O)n(Cc3ccc(F)cc3)c(=O)c12` [Example 302, 3-(4-Fluoro-benzyl)-5-methyl-2,4-dioxo-1,2,3,4-tetrahydro-thieno[2,3-d]pyrimidine-6-carboxylic acid benzyl ester], the half-inhibitory concentration (IC50) came to 30 µM.
Consider `CC(C)COC(=O)c1cc2c(=O)n(Cc3ccccc3)c(=O)n(C)c2s1` [Example 188, 3-Benzyl-1-methyl-2,4-dioxo-1,2,3,4-tetrahydro-thieno[2,3-d]pyrimidine-6-carboxylic acid isobutyl ester], for which the IC50 is 19 µM.
Turning to `COc1ccc(CCNC(=O)c2cc3c(=O)n(Cc4ccccc4)c(=O)n(C)c3s2)cc1` [Example 355, 3-Benzyl-1-methyl-2,4-dioxo-1,2,3,4-tetrahydro-thieno[2,3-d]pyrimidine-6-carboxylic acid[2-(4-methoxy-phenyl)-ethyl]-amide], the IC50 is greater than 100 µM.
For the compound `COc1ccc(CNC(=O)c2cc3c(=O)n(CCS(=O)(=O)c4ccc(C)cc4)c(=O)n(C)c3s2)cc1` [Example 269], the IC50 is 26 µM.
For the compound `COc1cccc(CNC(=O)c2cc3c(=O)n(CCOc4ccc(Br)cc4)c(=O)n(C)c3s2)c1` [Example 233, 3-[2-(4-Bromo-phenoxy)-ethyl]-1-methyl-2,4-dioxo-1,2,3,4-tetrahydro-thieno[2,3-d]pyrimidine-6-carboxylic acid 3-methoxy-benzylamide], the IC50 stood at 0.069 µM.
`COc1cccc(CNC(=O)c2cc3c(=O)n(CCNC(=O)c4ccccc4)c(=O)n(C)c3s2)c1` [Example 294]: the IC50 was greater than 100 µM.
As for `Cn1c(=O)n(Cc2ccccc2)c(=O)c2cc(C(=O)OCC3CCC3)sc21` [Example 157, 3-Benzyl-1-methyl-2,4-dioxo-1,2,3,4-tetrahydro-thieno[2,3-d]pyrimidine-6-carboxylic acid cyclobutylmethyl ester], the IC50 was greater than 100 µM.
As for `COC(=O)c1ccc(Cn2c(=O)c3cc(C(=O)NCc4cccc(OC)c4)sc3n(C)c2=O)cc1OC` [Example 240, 2-Methoxy-4-[6-(3-methoxy-benzylcarbamoyl)-1-methyl-2,4-dioxo-1,4-dihydro-2H-thieno[2,3-d]pyrimidin-3-ylmethyl]-benzoic acid methyl ester], the figure is 0.18 µM.
As for `Cn1c(=O)n(Cc2ccccc2)c(=O)c2cc(C(=O)NC3CCc4ccccc43)sc21` (centres unmarked) [Example 353, 3-Benzyl-1-methyl-2,4-dioxo-1,2,3,4-tetrahydro-thieno[2,3-d]pyrimidine-6-carboxylic acid indan-1-ylamide], the IC50 was greater than 100 µM.
With `Cn1c(=O)n(CCc2ccccc2)c(=O)c2cc(C(=O)OCc3ccccc3)sc21` [Example 104, 1-Methyl-2,4-dioxo-3-phenethyl-1,2,3,4-tetrahydro-thieno[2,3-d]pyrimidine-6-carboxylic acid benzyl ester], the 50% inhibitory concentration (IC50) is 1.1 µM.
